In BigSolDB 2.1:

Nc1ccc(S(=O)(=O)Nc2ccc(Cl)nn2)cc1
solubility (mole fraction)
Conditions | in 1,4-dioxane | in acetone | in acetonitrile | in ethanol | in ethyl acetate | in isopropanol | in methanol | in n-butanol | in water
283.15 K | 0.0994 | 0.0647 | 0.0187 | 0.00381 | 0.0135 | 0.0031 | 0.00473 | 0.00335 | 2.25e-05
288.15 K | 0.106 | 0.0715 | 0.0193 | 0.00432 | 0.0141 | 0.00345 | 0.00513 | 0.00372 | 3.31e-05
293.15 K | 0.116 | 0.0804 | 0.0202 | 0.00484 | 0.0152 | 0.00382 | 0.00569 | 0.00421 | 4.39e-05
298.15 K | 0.129 | 0.0908 | 0.0213 | 0.00543 | 0.0165 | 0.00429 | 0.00627 | 0.00474 | 5.9e-05
303.15 K | 0.143 | 0.102 | 0.0224 | 0.00616 | 0.0179 | 0.00476 | 0.00696 | 0.00531 | 7.53e-05
308.15 K | 0.159 | 0.116 | 0.0239 | 0.00689 | 0.0198 | 0.00538 | 0.00779 | 0.00596 | 9.52e-05
313.15 K | 0.179 | 0.131 | 0.0258 | 0.00777 | 0.0219 | 0.00614 | 0.00867 | 0.00676 | 0.000119
318.15 K | 0.204 | 0.147 | 0.0283 | 0.00879 | 0.0244 | 0.00702 | 0.00966 | 0.00768 | 0.000149
323.15 K | 0.235 | 0.165 | 0.0312 | 0.0101 | 0.0268 | 0.00792 | 0.0109 | 0.00867 | 0.000184
